Test results from US8445006B2, “Biomolecular coating for implants” (Georgia Tech Research Corporation, priority 2006, dated 2013).

Tests used:
rat tibia cortical bone [1] = assay: Rat tibia cortical bone implantation, pull-out mechanical testing; format: in vivo
Method: (§1) Commercially pure titanium implants (FIG. 4) were sonicated in de-ionized water for 20 min to remove surface debris. Implants were then dipped in 4% HF for 30 sec to remove the existing oxide layer and then incubated in 35% HNO3 for 30 min at 50° C. to regenerate a new oxide coating. Samples were transferred to 1.8 N NaOH for 1 min to terminate the oxidation reaction. Implants were then rinsed and boiled in de-ionized water for 1 h. To create the bioactive coating, the implants were incubated in 20 μg/ml GFOGER peptide (SEQ ID NO:1) or type I collagen solution for 1 h. Control titanium rods were incubated in PBS.
(§2) Implantations were conducted in accordance with an IACUC-approved protocol. Both hind legs of anesthetized, mature Sprague-Dawley male rats (250-350 g) were shaved and scrubbed with alcohol. The medial aspect of the proximal tibial metaphysis was exposed through an antero-medial skin incision, leaving the medial collateral ligament intact. Using a saline-cooled drill, two defects were created in each tibia. Sterile implant rods were press fit into the defects. Periosteum was mobilized and sutured over the implantation site, and the skin was closed with wound clips. Subjects were euthanized after 4 weeks and proximal tibiae were fixed in neutral buffered formalin for histology or recovered without fixation and maintained in PBS-moistened gauze for immediate mechanical testing.
(§3) To evaluate the performance of the bioactive GFOGER peptide (SEQ ID NO:1) treatment in vivo, osseointegration in a rat tibia cortical bone model was quantified using quantitative histomorphometry and pull-out mechanical testing. A cylindrical titanium implant rod with a tapered stop collar was designed (FIG. 4). The tapered head ensures that all implants are inserted into the bone at the same depth, guaranteeing uniform bone contact among treatments. Using a saline-cooled drill, two defects 2 mm in diameter were created in the medial aspect of the proximal tibial metaphysis. Implant rods consisting of GFOGER peptide (SEQ ID NO:1) functionalized or untreated (control) titanium were press fit into the cortical defects. After four weeks, the rat tibiae were harvested and evaluated for bone apposition by histological staining and mechanical integration by pull-out testing. […] Representative micrographs show 50-80 μm longitudinal ground sections of rat tibia stained with Sanderson's Rapid Bone Stain™ and van Gieson counterstain. Cells stain dark to light blue, soft tissue elements stain blue-green, and bone matrix stains yellow orange to autumn orange.
(§4) Osseointegration of implants in a rat tibia cortical bone model was quantified to evaluate the in vivo performance of the engineered titanium surfaces in bone healing. Importantly, this in vivo model provides a rigorous platform to evaluate implant coating function in a relevant orthopaedic setting. Two 2.0-mm diameter defects were drilled into the medial aspect of the proximal tibial metaphysis using a saline cooled drill. Tapered cylindrical implants (FIG. 4) of clinical-grade titanium were press-fit into the cortical defects.

[2] = test system: bone marrow stromal cells; assay: Osteoblast-specific gene expression by qRT-PCR; format: cell-based, rat
Method: Primary bone marrow stromal cells were harvested from the femora of young adult male Wistar rats in accordance with an IACUC-approved protocol. After excision, hindleg femora and tibiae were cleared of soft tissue and rinsed in growth medium (α-minimal essential medium supplemented with 10% fetal bovine serum, 1% penicillin-streptomycin, and 0.3 μg/ml amphotericin B). The ends of the long bones were then removed and the marrow space was flushed with culture medium (3-5 ml), using a syringe with an 18-gauge needle. Marrow isolates were pooled, centrifuged, resuspended in growth medium, and seeded for adhesion-dependent selection on tissue culture polystyrene dishes. Non-adherent hematopoietic cells were removed during subsequent medium exchanges, which occurred every other day. Cells were subcultured every two days according to standard techniques. For in vitro osteogenic assays, cells were seeded at 10,000 cells/cm^2 in growth medium. After 24 h, cultures were maintained in osteogenic medium consisting of growth medium supplemented with 50 μg/ml L-ascorbic acid and 3 mM sodium β-glycerophosphate.
Gene expression was analyzed by qRT-PCR. Total RNA was isolated at 7 days in culture using the Qiagen RNeasy RNA isolation kit. During RNA isolation and purification, samples were treated with DNaseI (27 Kunitz units/sample) for 15 min at room temperature to eliminate any genomic DNA contamination. The concentration of purified RNA was quantified using a NanoDrop™ (NanoDrop Technologies) and 1 μg of total RNA was used to synthesize cDNA templates by oligo(dT) priming using the Superscript First-Strand cDNA Synthesis System™.
qRT-PCR was performed with the ABI Prism 7700 Sequence Detection System (Applied Biosystems; 40 cycles; melting for 15 s at 95° C.; annealing and extending for 60 s at 60° C.) using SYBR Green DNA intercalating dye. Gene transcript concentration in the sample cDNA template solutions was quantified by preparing a functional range of dilutions from an absolute standard for each gene. Linear standard curves were then generated by plotting the log of the known concentration versus the CT value (the cycle number at which the fluorescence reached a threshold level). Oligonucleotide primers (Table 1) were designed using Primer Express™ software (Applied Biosystems).

rat tibia cortical bone [3] = assay: Rat tibia cortical bone implantation, histology and bone-implant contact histomorphometry; format: in vivo; details: 4 weeks; for histology: bone matrix around implants: poly(OEGMA) brush implants, 0.9 pmol/cm^2
Method: as §1, §2
Excised tibiae were fixed in 10% neutral buffered formalin for 1 week. […] Ground sections of 50-80 μm were generated using the Exakt Grinding System™. Two longitudinal ground sections were generated per tibia, each containing two titanium plugs inserted transverse to the tibia's long axis. Sections were then stained with Sanderson's Rapid Bone Stain™ and a van Gieson counter stain. Bone implant contact (BIC) was measured as the percentage of implant's circumference that was in direct contact with bone tissue (Adobe Photoshop® CS imaging software).
as §3, §4

[4] = 4 weeks, tethered brushes 0.9 pmol/cm^2
[5] = 7-day cultures, tethered brushes vs RGD supports
[6] = 7 day cultures, adsorbed coating vs untreated titanium

Substance	mechanical fixation vs unmodified titanium (rat tibia cortical bone [1]; 4 weeks, tethered brushes)	enhancement in fixation over RGD-tethered implants (rat tibia cortical bone [1]; [4])	improvement in fixation compared to unmodified poly(OEGMA) brush coating (rat tibia cortical bone [1]; [4])	dependence of mechanical fixation on tethered surface density (rat tibia cortical bone [1]; varying tethered densities, hyperbolic relationship R^2=0.87)	bone sialoprotein (BSP) transcript levels [2, 5]	osteocalcin (OCN) transcript levels [2, 5]	Runx2/Cbfa1 expression levels ([2]; 7-day cultures, tethered brushes vs equimolar RGD brushes)	bone-implant apposition (rat tibia cortical bone [3]; passively coated (20 μg/ml) vs unmodified titanium or pFN-coated)	histology: bone matrix around implants (rat tibia cortical bone [3])	bone-implant contact area vs unmodified titanium implant (rat tibia cortical bone [3]; tethered brush implants)	mechanical fixation (pull-out force) (rat tibia cortical bone [1]; 4 weeks, vs type I collagen or untreated titanium)	Runx2/Cbfa1 expression levels [2, 6]	bone sialoprotein gene expression [2, 6]	osteocalcin gene expression [2, 6]	bone apposition (bone implant contact, BIC) (rat tibia cortical bone [3]; passively coated implants vs untreated titanium)	histology: peri-implant bone mineral (rat tibia cortical bone [3]; passively coated titanium implants (20 μg/ml))	bone apposition and mechanical fixation among brush implant groups (rat tibia cortical bone [1]; 4 weeks, poly(OEGMA) brush implants)	any differentiation marker vs serum-exposed unmodified titanium ([2]; tethered brushes)
FNIII7-10: monobiotinylated recombinant fibronectin fragment spanning the 7-10th type III repeats of fibronectin; α5β1 integrin ligand	higher mechanical fixation	2.9 fold	~4 fold	increased with FNIII7-10 surface density	increased transcript levels	increased transcript levels	elevated	enhanced bone-implant apposition	extensive and contiguous bone matrix	significantly higher								
GGYGGGPC(GPP)5GFOGER(GPP)5GPC [GFOGER peptide]											significantly higher mechanical fixation	elevated	greater levels of gene expression	greater levels of gene expression	nearly two-fold enhancement	substantial and contiguous bone mineral		
GRGDSPC [RGD peptide, linear RGD oligopeptide purchased from BACHEM; primarily supports αvβ3-mediated adhesion, reference compound]									Less bone tissue was observed								no differences in bone apposition or mechanical fixation	No differences were observed
